From US9687459B2, “Aminocyclobutane derivatives, method for preparing same and the use thereof as drugs” (priority 2012, dated 2017)
Values joined by “and” are separate entries in the source; they are usually repeats but may differ in a detail not shown here. Equal entries are not always repeated. Where two headings read alike, the source gives them in different places.

Experiments:
[1] = molecular target: T1, recombinant human NMDA receptors constructed from NR1 and NR2B sub-units (Homo sapiens, UniProt Q05586+Q13224); assay: Inhibition of NMDA current in Xenopus ovocytes, two electrode voltage clamp; format: cell-based
T1 construct: expressed in transfected cells; host or cells: Xenopus laevis oocytes injected with cRNA transcribed from pGEMHE constructs
Description: We examined the effects of the compounds of the invention on inhibition of the NMDA current in Xenope (Xenopus laevis) expressing recombinant human NMDA receptors constructed from NR1 and NR2B sub-units. The currents produced by stimulation of these receptors by means of endogenous agonists were studied according to the two electrode voltage clamp technique reported by Planells-Cases et al., 2002, J. Pharmacol. Exp. Ther., 302, 163-173.
Protocol: ovocytes were surgically removed from adults xenopes, enzymatically defolliculated and stored at 17° C. in a solution containing: 96 mM of NaCl, 2 mM of KCl, 1 mM of MgCl2, 1.8 mM of CaCl2 and 5 mM of HEPES at pH 7.5 (NaOH) and 50 mg/L of gentamycin (Heusler et al., 2005, Neuropharmacology, 49, 963-976). Complementary DNA (cDNA) coding for the NR1 sub-unit was cloned by PCR using primers targeted for start and end codons in the published sequence (Genebank access number M_007327). cDNA coding for the NR2B sub-unit was synthesised by Eurogentec (Seraing, Belgium) according to the published sequence (gene bank access number NM_000834). The NR1 and NR2B cDNA was then sub-cloned in the pGEMHE high expression carrier for in vitro transcription of cDNA. cRNA coding for NR1 and NR2B was prepared according to the method described by Heusler et al. (already cited). Aliquots of the cRNA solution were injected into the ovocytes ([…] for NR1 and 40-1000 pg/ovocyte for NR2B). Each ovocyte was injected with 100 nL of a solution containing: 4 mM of Na^+BAPTA (pH 7.2) in order to block all residual chlorine currents. After stabilisation, NMDA currents were activated by superfusion of glutamate and glycine each at a concentration of 10 μM. The compounds to be tested were then superfused in a Ringer Ba^++ solution at increasing concentrations in the presence of glutamate and glycine (4 to 5 concentrations were tested per ovocyte). The concentration-response codes obtained are analysed for each ovocyte by non-linear regression and a pIC50 value was calculated. pIC50 designates the negative logarithm of the compound concentration tested needed to reduce the amplitude of the NMDA current by half.

[2] = test system: forced swimming model in the rat; assay: Forced swimming test, immobility time; format: in vivo; conditions: for Immobility time % reduction at 20 mg/kg: 20 mg/kg ip; for ED50: ip 30 min before test, dose reducing immobility time by half relative to controls
Procedure: This height allows the rats to swim or to float without their paws touching the base of the cylinder. 24 hours before the test day, the rats are placed in the cylinder for 15 min, after which time they no longer attempt to escape and remain immobile at the surface. On the test day, the compound to be tested or the carrier is injected (ip) into the animal which is placed in the cylinder 30 min later. The duration of immobility (defined when the rat simply floats and only makes small movements to stay at the surface) is measured with an accuracy of 0.1 s for 5 minutes.

[3] = test system: acute inflammatory pain model in the rat; conditions: for Paw licking % reduction at 40 mg/kg / Paw licking inhibition at 40 mg/kg (in words): 40 mg/kg ip, late phase; for Paw licking MSD (minimum significant dose): ip 15 min before formaldehyde, late phase 22.5-27.5 min
[4] = test system: pre-pulse inhibition of the jolt reflex in the rat; assay: Pre-pulse inhibition test for the jolt reflex (PPI); format: in vivo; conditions: FIG. 1
Description: We have already highlighted the importance of normalising the NMDA receptor function, in other words blocking its excessive activity without interfering, or interfering as little as possible, with its normal physiological functioning. As a marker of the interaction between the products of the invention and the normal functioning of the NMDA receptors, we chose the pre-pulse inhibition test for the jolt reflex (PPI). This test represents a measurement of the organism's capacity to filter non-essential information. Non-competitive and competitive antagonists as well as channel blockers reduce PPI in the rat (Depoortere et al., 1999, Behav. Pharmacol., 10, 51-62), such a reduction being considered to be predictive of the psychotomimetic effects of NMDA antagonists in humans.
Protocol: Male rats (Sprague-Dawley Iffa Credo, Les Oncins, France) were placed in 18.4 cm by 8.8 cm diameter cylinders resting on a base below which a piezoelectric accelerometer is fixed to act as a detector of the jolt reaction. This is enclosed in a box with a loudspeaker attached to the ceiling to deliver sound pulses and pre-pulses, and is acoustically isolated (SR LAB, San Diego Instruments, San Diego, USA). All the events are controlled by means of software. […] Three types of sound stimuli (white noise) are delivered; 1) a pulse of 118 dB (P, duration 40 msec); 2) a pre-pulse of 78 dB (duration 20 msec) followed by a pulse of 118 dB (pP); and 3) no pre-pulse or pulse (NP). The interval between the beginning of the pre-pulse and the beginning of the pulse is 100 msec, with background noise at 70 dB. The jolt reaction is recorded for 100 ms, 100 ms after the beginning of the stimulus (pP or NP) by a numerical/analogue acquisition card (12 bits). The session starts with a stimulus-free period of 5 min after which animals are exposed to 10 P (separated on average by 15 s and intended to stabilise the jolt reaction). The reactions recorded with these 10 P are not used for the calculation. After this, 10 P, 10 pP and 3 NP are delivered in a semi-random order with an average interval of 15 s in between. At the end of this pre-test, rats undergo an ip injection of the compounds to be tested or physiological serum as a control and are returned to their cages. The actual test session (similar on every point to the pre-test) is carried out 60 minutes later. The percentage inhibition of the pre-pulse is calculated using data from this test session according to the formula: (median amplitude P−median amplitude pP)×100/(median amplitude P).

[5] = ovocytes expressing human NR1/NR2B, glutamate and glycine each 10 μM, read-out: Inhibition of NMDA current pIC50 (converted)

T1 sequence (Q13224 27-1484, other chains not shown): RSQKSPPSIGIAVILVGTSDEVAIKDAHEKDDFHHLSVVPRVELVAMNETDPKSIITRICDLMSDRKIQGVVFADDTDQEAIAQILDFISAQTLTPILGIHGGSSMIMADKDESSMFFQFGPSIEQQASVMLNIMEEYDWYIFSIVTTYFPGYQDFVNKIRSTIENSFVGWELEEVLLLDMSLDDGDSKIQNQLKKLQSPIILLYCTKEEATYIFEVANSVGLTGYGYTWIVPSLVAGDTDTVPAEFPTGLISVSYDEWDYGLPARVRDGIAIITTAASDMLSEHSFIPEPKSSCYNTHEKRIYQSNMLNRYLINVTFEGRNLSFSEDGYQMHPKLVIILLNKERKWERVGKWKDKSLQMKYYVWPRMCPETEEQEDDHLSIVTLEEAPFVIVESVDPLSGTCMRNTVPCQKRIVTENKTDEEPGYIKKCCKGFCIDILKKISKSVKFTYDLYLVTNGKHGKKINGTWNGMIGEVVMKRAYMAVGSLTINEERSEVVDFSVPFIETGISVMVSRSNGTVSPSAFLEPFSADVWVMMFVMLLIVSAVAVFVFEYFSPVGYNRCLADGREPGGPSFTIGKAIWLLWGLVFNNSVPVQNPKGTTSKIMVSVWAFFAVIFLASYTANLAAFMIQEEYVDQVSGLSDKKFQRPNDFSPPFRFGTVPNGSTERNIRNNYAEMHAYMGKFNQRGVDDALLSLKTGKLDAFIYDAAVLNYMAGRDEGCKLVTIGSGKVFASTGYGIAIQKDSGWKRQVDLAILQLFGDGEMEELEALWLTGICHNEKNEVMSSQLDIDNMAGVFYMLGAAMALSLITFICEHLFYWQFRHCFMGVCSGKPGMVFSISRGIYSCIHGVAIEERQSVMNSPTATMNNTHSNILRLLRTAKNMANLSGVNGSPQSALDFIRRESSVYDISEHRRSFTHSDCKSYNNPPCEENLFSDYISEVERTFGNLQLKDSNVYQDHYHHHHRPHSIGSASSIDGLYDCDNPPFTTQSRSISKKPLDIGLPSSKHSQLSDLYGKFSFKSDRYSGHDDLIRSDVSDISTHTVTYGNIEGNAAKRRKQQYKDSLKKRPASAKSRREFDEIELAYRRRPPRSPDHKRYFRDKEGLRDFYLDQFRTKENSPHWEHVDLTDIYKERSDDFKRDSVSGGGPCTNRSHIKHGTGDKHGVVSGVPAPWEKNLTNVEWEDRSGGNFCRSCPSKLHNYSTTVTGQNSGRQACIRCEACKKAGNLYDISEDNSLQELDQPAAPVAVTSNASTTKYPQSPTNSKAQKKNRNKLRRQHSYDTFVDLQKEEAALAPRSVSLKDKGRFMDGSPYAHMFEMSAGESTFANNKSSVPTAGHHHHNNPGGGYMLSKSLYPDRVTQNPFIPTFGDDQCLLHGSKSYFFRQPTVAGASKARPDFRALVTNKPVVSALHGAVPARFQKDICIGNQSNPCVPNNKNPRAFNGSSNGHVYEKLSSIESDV

CCN(CC)C(=O)[C@]1(c2cccc(Cl)c2)C[C@@H](N)C1 [Compound 1e, trans-3-amino-N,N-diethyl-1-(3-chlorophenyl)-cyclobutanecarboxamide]
IC50 [1]: 79.4 nM
Immobility time % reduction at 20 mg/kg [2]: 77%
ED50 [2]: 15 mg/kg
Paw licking % reduction at 40 mg/kg [3]: 100%
Paw licking inhibition at 40 mg/kg (in words) [3]: completely inhibited
Paw licking MSD (minimum significant dose) [3]: 10 mg/kg

CCN(CC)C(=O)[C@]1(c2ccccc2)C[C@@H](N)C1 [Compound 1a1, trans-3-amino-N,N-diethyl-1-phenylcyclobutanecarboxamide]
IC50 [1, 5]: 501 nM
Paw licking % reduction at 40 mg/kg [3]: 100%
Paw licking inhibition at 40 mg/kg (in words) [3]: completely inhibited
Paw licking MSD (minimum significant dose) [3]: 10 mg/kg
Reduction in PPI at 20 mg/kg ([4]; 20 mg/kg ip, test 60 min after injection): 30%
PPI reduction at 40 mg/kg (in words) ([4]; 40 mg/kg): modest
Dose from which PPI is disrupted ([4]; ip): ≥ 20 mg/kg

CCN(CC)C(=O)[C@]1(c2cccc(F)c2)C[C@@H](N)C1 [Compound 1c, trans-3-amino-N,N-diethyl-1-(3-fluorophenyl)-cyclobutanecarboxamide]
IC50 [1, 5]: 158 nM
Immobility time % reduction at 20 mg/kg [2]: 83%
ED50 [2]: 13 mg/kg

CCN(CC)C(=O)[C@]1(c2ccccc2F)C[C@@H](N)C1 [Compound 1b, trans-3-amino-N,N-diethyl-1-(2-fluorophenyl)-cyclobutanecarboxamide]
IC50 [1, 5]: 501 nM

CNC1(c2ccccc2Cl)CCCCC1=O (stereo not drawn) [ketamine, reference compound]
IC50 [1]: 794 nM
Immobility time % reduction at 20 mg/kg [2]: 50%
ED50 [2]: 20 mg/kg
Paw licking % reduction at 40 mg/kg ([3]; 40 mg/kg): 74% and 75%
Paw licking MSD (minimum significant dose) [3]: 40 mg/kg
Effect on PPI at 20 mg/kg (in words) ([4]; 20 mg/kg ip): total disappearance of PPI

CCN(CC)C(=O)[C@]1(c2cccc(OC)c2)C[C@@H](N)C1 [Compound 1d, trans-3-amino-N,N-diethyl-1-(3-methoxyphenyl)-cyclobutanecarboxamide]
IC50 [1, 5]: 398 nM
